What all share (type): functional, cell-based
Experiment [1] in a line: Antiproliferative activity against human BIU-87 cells assessed as inhibition of cell growth measured after 48 hrs by MTT assay. The settings on record: BIU87, 48 h.
A further experiment concerns KB. Description: Antiproliferative activity against human KB cells assessed as inhibition of cell growth measured after 48 hrs by MTT assay.
The test system of another experiment is ECa-109 cell line. Kind of experiment: Antiproliferative activity against human Eca-109 cells assessed as inhibition of cell growth measured after 48 hrs by MTT assay. The settings on record: ECa-109, 48 h.
For a further experiment, the system named is BGC-823. Kind of experiment: Antiproliferative activity against human BGC-823 cells assessed as inhibition of cell growth measured after 48 hrs by MTT assay. The settings on record: BGC-823, 48 h.
For another experiment, the system named is HT-29. Description: Antiproliferative activity against human HT-29 cells assessed as inhibition of cell growth measured after 48 hrs by MTT assay. To be noted: HT-29, 48 h.
The test system of the next experiment is SK-OV-3. Description: Antiproliferative activity against human SK-OV-3 cells assessed as inhibition of cell growth measured after 48 hrs by MTT assay. The settings on record: SK-OV-3, 48 h. (In general: Tetrazolium assays rely on reduction of a dye to a coloured formazan, in cell work by metabolically active cells.)
The test system of another experiment is A-375. Description: Antiproliferative activity against human A-375 cells assessed as inhibition of cell growth measured after 48 hrs by MTT assay. To be noted: A-375, 48 h.
The next experiment concerns 786-0. Description: Antiproliferative activity against human 786-0 cells assessed as inhibition of cell growth measured after 48 hrs by MTT assay. The settings on record: 786-0, 48 h.
A further experiment relates to CWR22R. Kind of experiment: Antiproliferative activity against human 22Rv1 cells assessed as inhibition of cell growth measured after 48 hrs by MTT assay. The settings on record: 22Rv1, 48 h.
For the next experiment, the system named is MCF7. Description: Antiproliferative activity against human MCF7 cells assessed as inhibition of cell growth measured after 48 hrs by MTT assay. To be noted: MCF7, 48 h.

A value given as a limit tells only on which side of the number the result lay.

In the case of `CN1CCN(Cc2cc3c4ccccc4n(Cc4ccccc4)c3c(CN3CCN(C)CC3)n2)CC1`, the IC50 – broadly, the concentration that gives 50% inhibition – in [1] amounted to 15.5 µM; in the experiment on KB it was 24.2 µM; with ECa-109 cell line, 16.8 µM; with BGC-823 it was 58.3 µM; in the experiment with HT-29, 6.42 µM; with SK-OV-3, 15.6 µM. Also, the IC50 in the experiment on A-375 amounted to 13.6 µM; with 786-0, 2.36 µM; in the experiment with CWR22R it was 6.47 µM; in the experiment with MCF7, 27.5 µM.

With `CN1CCN(Cc2cc3c4ccccc4n(Cc4ccc(F)cc4)c3c(CN3CCN(C)CC3)n2)CC1`, the 50% inhibitory concentration (IC50) in [1] is 16.9 µM; with KB, 28.6 µM; in the experiment with ECa-109 cell line, 9.87 µM; with BGC-823, 48.7 µM; with HT-29, 5.98 µM; in the experiment with SK-OV-3 it was 8.72 µM. In addition, the IC50 with A-375 is 16.8 µM; with 786-0 it was 2.68 µM; in the experiment on CWR22R it was 5.62 µM; in the experiment with MCF7 it was 36.4 µM.

Regarding `CN1CCN(Cc2cc3c([nH]c4ccccc43)c(CN3CCN(C)CC3)n2)CC1`, the IC50 in experiment [1] is over 100 µM; in the experiment on KB it was over 100 µM; in the experiment with ECa-109 cell line, over 100 µM; with BGC-823 it was over 100 µM; in the experiment with HT-29, 83.3 µM; in the experiment on SK-OV-3 it was over 100 µM. Further, the IC50 in the experiment with A-375 is over 100 µM; in the experiment with 786-0 it was 28.4 µM; in the experiment with CWR22R, over 100 µM; in the experiment with MCF7, over 100 µM.

With `CCCCn1c2ccccc2c2cc(CN3CCN(C)CC3)nc(CN3CCN(C)CC3)c21`, the IC50 in experiment [1] was found to be 23.9 µM; in the experiment on KB, 34.8 µM; in the experiment with ECa-109 cell line, 25.6 µM; in the experiment with BGC-823, 98.5 µM; in the experiment on HT-29, 11 µM; in the experiment on SK-OV-3 it was 27.3 µM. Also, the IC50 in the experiment on A-375 stood at 17.2 µM; with 786-0, 2.32 µM; in the experiment on CWR22R, 4.63 µM; in the experiment on MCF7, 50.2 µM.

Regarding `CN1CCN(Cc2cc3c4ccccc4n(Cc4cccc(Cl)c4)c3c(CN3CCN(C)CC3)n2)CC1`, the IC50 in [1] was determined as 8.01 µM; in the experiment on KB, 15.6 µM; in the experiment with ECa-109 cell line, 11.3 µM; in the experiment with BGC-823, 36.8 µM; with HT-29, 5.68 µM; with SK-OV-3 it was 4.62 µM. Further, the concentration for half-maximal inhibition (IC50) turned out to be 12 µM in the experiment on A-375, 3.21 µM with 786-0, 4.93 µM in the experiment on CWR22R and 15.8 µM with MCF7.

`CN1CCN(Cc2cc3c4ccccc4n(C)c3c(CN3CCN(C)CC3)n2)CC1`: the IC50 is over 100 µM in experiment [1]; over 100 µM in the experiment with KB; over 100 µM with ECa-109 cell line; over 100 µM in the experiment on BGC-823; 46.8 µM with HT-29; 93.5 µM in the experiment with SK-OV-3. Further, the IC50 is 85.9 µM in the experiment on A-375, 13.4 µM in the experiment with 786-0, over 100 µM with CWR22R and over 100 µM in the experiment on MCF7.

(Values after ChEMBL document CHEMBL5352452, “Design, synthesis and pharmacological evaluation of β-carboline derivatives as potential antitumor agent via targeting autophagy” (Eur J Med Chem, 2023).)
